In patent US20050215543A1, “Methods of treating HIV infection” (priority 2004, published 2005):

Test system: HIV-1 LAI
Experiment: microbe, parasite or virus in culture
Details: for EC50: Human immunodeficiency virus 1, MT2, 120 h; for Combination Indices at % HIV Inhibition (Confidence Interval) 50%: 50% HIV inhibition; for Combination Indices at % HIV Inhibition (Confidence Interval) 50% / Combination Indices at % HIV Inhibition (Confidence Interval) 75% / Combination Indices at % HIV Inhibition (Confidence Interval) 90%: 95% CI in parenthesis; for Combination Indices at % HIV Inhibition (Confidence Interval) 75%: 75% HIV inhibition; for Combination Indices at % HIV Inhibition (Confidence Interval) 90%: 90% HIV inhibition; for Overall Result: two-drug combination with Compound 1, all ratios and effect levels, MT-2/HIV-1 LAI, RT assay
Method: Virus and cell lines. The T-cell lines, MT-2 and PM-1 were obtained through the AIDS Research and Reference Reagent Program, NIAID, and were contributed by Dr. D. Richman and Dr. R. Gallo, respectively. Both cell lines were cultured in RPMI 1640 medium supplemented with 10% fetal bovine serum, 2 mM L-glutamine and sub-cultured twice a week. The LAI strain of HIV-1 was obtained from the Fred Hutchinson Cancer Research Center, and the Bal strain was from NIH. Both virus stocks were amplified and titered in MT-2 cells (LAI) and PM-1 cells (Bal) using a virus infectivity assay.
Drug Susceptibility and Cytotoxicity Assays. For drug susceptibility assays, MT-2 cells were infected with HIV-1 LAI (or PM-1 cells with HIV-1 Bal) at an MOI of 0.005, and seeded into 96-well microtiter plates (0.1×10^6 cells/ml) containing serial dilutions of test compounds. […] Each drug ratio consisted of an array of 3-fold serial dilutions, and was performed in quadruplicate. The plates were incubated at 37° C./5% CO2. The MT-2 cells infected with HIV-1 LAI were incubated for 5 days. On day-five post-infection, 20 μl from each well was harvested and quantitated by a reverse transcriptase (RT) assay, or in samples involving non-nucleoside RT inhibitors, an MTS assay. The PM-1 cells infected with HIV-1 Bal and used for studying the combinations with CCR5 inhibitors were incubated for six days. On day-six post-infection, 20 μl from each well was harvested, 20- and 50-fold diluted and quantitated by p24 assay. Cytotoxicity assays were performed using uninfected cells, exposed to the same drug combinations, and incubated for six days. Cell viability was determined by an XTT assay. The CC50 values were calculated by using the exponential form of the median effect equation as mentioned below for calculation of EC50.
Analysis of Drug Combination Effects. For determination of CI values, drugs were diluted in a fixed ratio and multiple ratios were analyzed. The drug serial dilutions spanned a range of concentrations near the EC50 value of each compound, so that equivalent antiviral activities could be compared. Concentration-response curves were estimated for each individual drug and every combination using the median-effect equation. The equation was fit using a nonlinear regression routine (Proc Nlin) in PC SAS version 8.01 (SAS Institute Inc., SAS Version 8.01, Cary, N.C.: SAS Institute Inc., 1990).
In this equation, Fa stands for “fraction affected,” and represents the fraction of the viral load that has been inactivated. […] ED50 is drug concentration that is expected to reduce the amount of virus by 50%, and m is a parameter that reflects the slope of the concentration-response curve.
To assess antiviral effects of different drug combination treatments, combination indices (CIs) were calculated according to Chou and Rideout. The combination index was computed as CI=[D]1/[Dm]1+[D]2/[Dm]2
In this equation [Dm]1 and [Dm]2 are the concentrations of drugs that would individually produce a specific level of effect, while [D]1 and [D]2 are the concentrations of drugs in combination that would produce the same level of effect.
Theoretically, additivity is implied if the CI is equal to one, synergy if the CI is less than one, and antagonism if the CI is greater than one. […] At best, we can construct a range that contains the likely values for the CI, given the noise in the data. In this report, these ranges are reported in parentheses next to each point estimate of the CI. […] If the range fell entirely above 1.0, we would infer antagonistic behavior. If the range were to include 1.0, we would infer additivity.
In carrying out the combination experiments below, the EC50 for Compound 1 and each comparator compound was determined during the course of each study, and used in the subsequent data analysis.

[1] = combination with Compound 1, EC50 ratio 1:1 (Compound 1:comparator)
[2] = combination with Compound 1, EC50 ratio 1:1
[3] = combination with Compound 1, EC50 ratio 1:2.5
[4] = combination with Compound 1, EC50 ratio 2.5:1

Cc1cn([C@H]2C[C@H](N=[N+]=[N-])[C@@H](CO)O2)c(=O)[nH]c1=O [Zidovudine, zidovudine]
EC50: 3 nM
Combination Indices at % HIV Inhibition (Confidence Interval) 50% [1]: 1.06 (0.85, 1.27)
Combination Indices at % HIV Inhibition (Confidence Interval) 75% [2]: 0.99 (0.72, 1.26)
Combination Indices at % HIV Inhibition (Confidence Interval) 90% [2]: 0.93 (0.53, 1.34)
Combination Indices at % HIV Inhibition (Confidence Interval) 50% [3]: 1.21 (1.01, 1.40)
Combination Indices at % HIV Inhibition (Confidence Interval) 75% [3]: 0.95 (0.74, 1.16)
Combination Indices at % HIV Inhibition (Confidence Interval) 90% [3]: 0.76 (0.50, 1.02)
Combination Indices at % HIV Inhibition (Confidence Interval) 50% [4]: 0.81 (0.69, 0.92)
Combination Indices at % HIV Inhibition (Confidence Interval) 75% [4]: 0.70 (0.56, 0.83)
Combination Indices at % HIV Inhibition (Confidence Interval) 90% [4]: 0.60 (0.42, 0.79)
Overall Result: Additive-
Overall Result (listed as zidovudine): additive to synergistic

Nc1nc(=O)n([C@@H]2CS[C@H](CO)O2)cc1F [Emtricitabine, emtricitabine]
EC50: 34 nM
Combination Indices at % HIV Inhibition (Confidence Interval) 50% [1]: 0.57 (0.49, 0.64)
Combination Indices at % HIV Inhibition (Confidence Interval) 75% [2]: 0.33 (0.27, 0.39)
Combination Indices at % HIV Inhibition (Confidence Interval) 90% [2]: 0.19 (0.14, 0.24)
Combination Indices at % HIV Inhibition (Confidence Interval) 50% [3]: 0.38 (0.31, 0.45)
Combination Indices at % HIV Inhibition (Confidence Interval) 75% [3]: 0.48 (0.36, 0.60)
Combination Indices at % HIV Inhibition (Confidence Interval) 90% [3]: 0.60 (0.36, 0.84)
Combination Indices at % HIV Inhibition (Confidence Interval) 50% [4]: 0.17 (0.15, 0.19)
Combination Indices at % HIV Inhibition (Confidence Interval) 75% [4]: 0.21 (0.17, 0.25)
Combination Indices at % HIV Inhibition (Confidence Interval) 90% [4]: 0.26 (0.18, 0.34)
Overall Result: Synergistic
Overall Result (listed as emtricitabine): consistent synergy at all effective levels and concentration ratios

c1cc(CN2CCCNCCNCCCNCC2)ccc1CN1CCCNCCNCCCNCC1 [AMD-3100]
EC50: 8 nM
Combination Indices at % HIV Inhibition (Confidence Interval) 50% [1]: 0.40 (0.34, 0.46)
Combination Indices at % HIV Inhibition (Confidence Interval) 75% [2]: 0.27 (0.21, 0.33)
Combination Indices at % HIV Inhibition (Confidence Interval) 90% [2]: 0.18 (0.12, 0.24)
Combination Indices at % HIV Inhibition (Confidence Interval) 50% [3]: 0.25 (0.21, 0.29)
Combination Indices at % HIV Inhibition (Confidence Interval) 75% [3]: 0.14 (0.11, 0.17)
Combination Indices at % HIV Inhibition (Confidence Interval) 90% [3]: 0.08 (0.05, 0.10)
Combination Indices at % HIV Inhibition (Confidence Interval) 50% [4]: 0.15 (0.11, 0.20)
Combination Indices at % HIV Inhibition (Confidence Interval) 75% [4]: 0.28 (0.18, 0.38)
Combination Indices at % HIV Inhibition (Confidence Interval) 90% [4]: 0.51 (0.20, 0.83)

Cc1cn([C@H]2C=C[C@@H](CO)O2)c(=O)[nH]c1=O [Stavudine, stavudine]
EC50: 250 nM
Combination Indices at % HIV Inhibition (Confidence Interval) 50% [1]: 1.47 (1.16, 1.79)
Combination Indices at % HIV Inhibition (Confidence Interval) 75% [2]: 0.60 (0.42, 0.78)
Combination Indices at % HIV Inhibition (Confidence Interval) 90% [2]: 0.25 (0.13, 0.38)
Combination Indices at % HIV Inhibition (Confidence Interval) 50% [3]: 0.50 (0.37, 0.64)
Combination Indices at % HIV Inhibition (Confidence Interval) 75% [3]: 0.29 (0.18, 0.40)
Combination Indices at % HIV Inhibition (Confidence Interval) 90% [3]: 0.18 (0.07, 0.28)
Combination Indices at % HIV Inhibition (Confidence Interval) 50% [4]: 0.69 (0.47, 0.91)
Combination Indices at % HIV Inhibition (Confidence Interval) 75% [4]: 0.55 (0.30, 0.80)
Combination Indices at % HIV Inhibition (Confidence Interval) 90% [4]: 0.45 (0.12, 0.78)
Overall Result: Additive-
Overall Result (listed as stavudine): additive-synergistic

CC[C@H](C)[C@H](NC(=O)[C@H](CCC(N)=O)NC(=O)[C@H](C)NC(=O)[C@H](CCC(N)=O)NC(=O)[C@H](CCC(=O)O)NC(=O)[C@H](CC(C)C)NC(=O)[C@H](CC(C)C)NC(=O)[C@H](C)NC(=O)[C@@H](NC(=O)[C@@H](NC(=O)[C@H](CCCCN)NC(=O)[C@H](CCC(N)=O)NC(=O)[C@H](CCC(=O)O)NC(=O)[C@H](Cc1c[nH]c2ccccc12)NC(=O)[C@H](CCC(=O)O)NC(=O)[C@H](CCC(N)=O)NC(=O)[C@H](Cc1c[nH]c2ccccc12)NC(C)=O)[C@@H](C)CC)[C@@H](C)O)C(=O)N[C@@H](CCC(N)=O)C(=O)N[C@@H](CCC(N)=O)C(=O)N[C@@H](CCC(=O)O)C(=O)N[C@@H](CCCCN)C(=O)N[C@@H](CC(N)=O)C(=O)N[C@@H](CCC(=O)O)C(=O)N[C@@H](Cc1ccc(O)cc1)C(=O)N[C@@H](CCC(=O)O)C(=O)N[C@@H](CC(C)C)C(=O)N[C@@H](CCC(N)=O)C(=O)N[C@@H](CCCCN)C(=O)N[C@@H](CC(C)C)C(=O)N[C@@H](CC(=O)O)C(=O)N[C@@H](CCCCN)C(=O)N[C@@H](Cc1c[nH]c2ccccc12)C(=O)N[C@@H](C)C(=O)N[C@@H](CO)C(=O)N[C@@H](CC(C)C)C(=O)N[C@@H](Cc1c[nH]c2ccccc12)C(=O)N[C@@H](CCC(=O)O)C(=O)N[C@@H](Cc1c[nH]c2ccccc12)C(=O)N[C@@H](Cc1ccccc1)C(N)=O [Compound T-1249]
Combination Indices at % HIV Inhibition (Confidence Interval) 50% [1]: 0.25 (0.20, 0.30)
Combination Indices at % HIV Inhibition (Confidence Interval) 75% [2]: 0.14 (0.10, 0.19)
Combination Indices at % HIV Inhibition (Confidence Interval) 90% [2]: 0.08 (0.04, 0.12)
Combination Indices at % HIV Inhibition (Confidence Interval) 50% [3]: 0.32 (0.28 0.35)
Combination Indices at % HIV Inhibition (Confidence Interval) 75% [3]: 0.17 (0.14, 0.19)
Combination Indices at % HIV Inhibition (Confidence Interval) 90% [3]: 0.09 (0.06, 0.11)
Combination Indices at % HIV Inhibition (Confidence Interval) 50% [4]: 0.19 (0.17, 0.22)
Combination Indices at % HIV Inhibition (Confidence Interval) 75% [4]: 0.14 (0.12, 0.16)
Combination Indices at % HIV Inhibition (Confidence Interval) 90% [4]: 0.10 (0.08, 0.13)

COc1ncc(OC)c2c(C(=O)C(=O)N3CCN(C(=O)c4ccccc4)CC3)c[nH]c12 [Compound 1, 1-benzoyl-4-[2-(4,7-dimethoxy-1H-pyrrolo[2,3-c]pyridin-3-yl)-1,2-dioxoethyl]-piperazine]
EC50: 1 to 4 nM

Cc1cccc(C)c1OCC(=O)N[C@@H](Cc1ccccc1)[C@@H](O)C[C@H](Cc1ccccc1)NC(=O)[C@H](C(C)C)N1CCCNC1=O [Lopinavir, lopinavir]
EC50: 1 nM
Combination Indices at % HIV Inhibition (Confidence Interval) 50% [1]: 0.23 (0.16, 0.42)
Combination Indices at % HIV Inhibition (Confidence Interval) 75% [2]: 0.22 (0.14, 0.30)
Combination Indices at % HIV Inhibition (Confidence Interval) 90% [2]: 0.26 (0.09, 0.44)
Combination Indices at % HIV Inhibition (Confidence Interval) 50% [3]: 0.13 (0.08, 0.18)
Combination Indices at % HIV Inhibition (Confidence Interval) 75% [3]: 0.06 (0.05, 0.08)
Combination Indices at % HIV Inhibition (Confidence Interval) 90% [3]: 0.03 (0.02, 0.05)
Combination Indices at % HIV Inhibition (Confidence Interval) 50% [4]: 1.13 (0.73, 1.52)
Combination Indices at % HIV Inhibition (Confidence Interval) 75% [4]: 0.50 (0.26, 0.74)
Combination Indices at % HIV Inhibition (Confidence Interval) 90% [4]: 0.30 (0.07, 0.52)
Overall Result: Synergistic
Overall Result (listed as lopinavir): strong synergistic effects
